Data as given in patent publication US20250145665A1, “MACROCYCLIC PEPTIDES USEFUL AS MODULATORS OF TNF ALPHA” (Bristol-Myers Squibb Company, priority 2023, published 2025).
Like-named read-outs stand apart in the source and are kept apart here. Starred links: 1 amine or outer side, 2 acyl side, 3 side chain; linkers in the order of their positions; H or OH if unused. Positions of bridges follow the written chain, without caps; N, C: chain ends. Non-standard residues stand in square brackets, D forms with d. Residues, ends and D or L forms follow the SMILES beside them. *: point of attachment. X34 = Cc1cc(C(=O)O)cc(C(=O)Nc2ccc(-c3ccc(C[C@H](N[*:1])C(=O)[*:2])cc3)cc2)c1; X5 = Cn1nc(C(=O)Nc2ccc(-c3ccc(C[C@H](N[*:1])C(=O)[*:2])cc3)cc2)c2ccccc21; Bip(4'-NH) = O=C([C@H](Cc1ccc(-c2ccc(N[*:3])cc2)cc1)N[*:1])[*:2]; Indazole3carbonyl(1-CH2COOH) = O=C(O)Cn1nc(C(=O)*)c2ccccc21; X72 = N=C(N)Nc1ccc(CCNC(=N)NCCC[C@@H](N[*:1])C(=O)[*:2])cc1; X25 = N=C(N)Nc1cccc(CNC(=N)NCCC[C@@H](N[*:1])C(=O)[*:2])c1; Ala(morpholin-4-yl) = N[C@@H](CN1CCOCC1)C(=O)O; Benzoyl(3-OCH2COOH) = O=C(O)COc1cccc(C(=O)*)c1; Bip = N[C@@H](Cc1ccc(-c2ccccc2)cc1)C(=O)O; Cha = N[C@@H](CC1CCCCC1)C(=O)O; Sar = CNCC(=O)O

Target: TNFα (Homo sapiens, UniProt P01375)
Sequence (P01375 77-233 limits assumed): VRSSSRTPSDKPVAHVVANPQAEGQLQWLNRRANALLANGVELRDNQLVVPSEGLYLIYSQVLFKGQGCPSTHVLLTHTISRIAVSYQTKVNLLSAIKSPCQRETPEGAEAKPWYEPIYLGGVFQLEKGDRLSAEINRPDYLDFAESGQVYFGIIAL
Assay: TNF-Induced HEK-Blue Assay
Format: cell-based
[1] = HEK-Blue-CD40L cells, NF-kB-driven secreted alkaline phosphatase reporter, TNFα 0.5 ng/ml, 18 h, read-out: TNF induced HEK-Blue assay IC50 value

SMILES | IC50 | IC50 [1]
CC(C)C[C@@H]1NC(=O)[C@H](CCCNC(=N)N)NC(=O)[C@H](C(C)C)NC(=O)[C@@H]2CCCN2C(=O)[C@H](C(C)C)NC(=O)[C@@H](CCCNC(=N)NCc2cccc(NC(=N)N)c2)NC(=O)[C@H](CC(=O)O)NC(=O)[C@@H]2CCCN2C(=O)CN(C)C(=O)[C@H](Cc2ccc(-c3ccc(NC(=O)c4nn(CC(=O)O)c5ccccc45)cc3)cc2)NC(=O)[C@H](Cc2ccc(-c3ccccc3)cc2)NC(=O)[C@H](CN2CCOCC2)NC(=O)CSC[C@@H](C(=O)NCC(N)=O)NC1=O [Example 435] ({CH2CO}-[Ala(morpholin-4-yl)][Bip][Bip(4'-NH)](Indazole3carbonyl(1-CH2COOH))[Sar]PD[X25]VPVRLCG-NH2; thioether N-13) | < 0.05 µM | –
CC(C)C[C@@H]1NC(=O)[C@H](CCCNC(=N)N)NC(=O)[C@H](C(C)C)NC(=O)[C@@H]2CCCN2C(=O)[C@H](C(C)C)NC(=O)[C@@H](CCCNC(=N)NCCc2ccc(NC(=N)N)cc2)NC(=O)[C@H](CC(=O)O)NC(=O)[C@@H]2CCCN2C(=O)CN(C)C(=O)[C@H](Cc2ccc(-c3ccc(NC(=O)c4nn(CC(=O)O)c5ccccc45)cc3)cc2)NC(=O)[C@H](Cc2ccc(-c3ccccc3)cc2)NC(=O)[C@H](CN2CCOCC2)NC(=O)CSC[C@@H](C(=O)NCC(N)=O)NC1=O [Example 436] ({CH2CO}-[Ala(morpholin-4-yl)][Bip][Bip(4'-NH)](Indazole3carbonyl(1-CH2COOH))[Sar]PD[X72]VPVRLCG-NH2; thioether N-13) | < 0.05 µM | –
CC(C)C[C@@H]1NC(=O)[C@H](CCCNC(=N)N)NC(=O)[C@H](C(C)C)NC(=O)[C@@H]2CCCN2C(=O)[C@H](C(C)C)NC(=O)[C@@H](CCCNC(=N)NCc2cccc(NC(=N)N)c2)NC(=O)[C@H](CC(=O)O)NC(=O)[C@@H]2CCCN2C(=O)CN(C)C(=O)[C@H](Cc2ccc(-c3ccc(NC(=O)c4nn(C)c5ccccc45)cc3)cc2)NC(=O)[C@H](Cc2ccc(-c3ccccc3)cc2)NC(=O)[C@H](CN2CCOCC2)NC(=O)CSC[C@@H](C(=O)NCC(N)=O)NC1=O [Example 438] ({CH2CO}-[Ala(morpholin-4-yl)][Bip][X5][Sar]PD[X25]VPVRLCG-NH2; thioether N-13) | – | 0.05 to 0.2 µM
CC(C)C[C@@H]1NC(=O)[C@H](CCCNC(=N)N)NC(=O)[C@H](C(C)C)NC(=O)[C@@H]2CCCN2C(=O)[C@H](C(C)C)NC(=O)[C@@H](CCCNC(=N)NCCc2ccc(NC(=N)N)cc2)NC(=O)[C@H](CC(=O)O)NC(=O)[C@@H]2CCCN2C(=O)CN(C)C(=O)[C@H](Cc2ccc(-c3ccc(NC(=O)c4nn(C)c5ccccc45)cc3)cc2)NC(=O)[C@H](Cc2ccc(-c3ccccc3)cc2)NC(=O)[C@H](CN2CCOCC2)NC(=O)CSC[C@@H](C(=O)NCC(N)=O)NC1=O [Example 439] ({CH2CO}-[Ala(morpholin-4-yl)][Bip][X5][Sar]PD[X72]VPVRLCG-NH2; thioether N-13) | – | 0.05 to 0.2 µM
CC[C@H](C)[C@@H]1NC(=O)[C@@H](CCCNC(=N)N)NC(=O)[C@H](CC(=O)O)NC(=O)[C@H](Cc2cnc[nH]2)NC(=O)CN(C)C(=O)[C@H](Cc2ccc(-c3ccc(NC(=O)c4cccc(OCC(=O)O)c4)cc3)cc2)NC(=O)[C@H](Cc2ccc(-c3ccccc3)cc2)NC(=O)[C@H](CN2CCOCC2)NC(=O)CSC[C@@H](C(=O)NCC(N)=O)NC(=O)[C@H](CC(C)C)NC(=O)[C@H](Cc2cnc[nH]2)NC(=O)[C@H](C(C)C)NC(=O)[C@@H]2CCCN2C1=O [Example 441] ({CH2CO}-[Ala(morpholin-4-yl)][Bip][Bip(4'-NH)](Benzoyl(3-OCH2COOH))[Sar]HD[dR]IPVHLCG-NH2; thioether N-13) | – | < 0.05 µM
CC[C@H](C)[C@@H]1NC(=O)[C@@H](CCCNC(=N)N)NC(=O)[C@H](CC(=O)O)NC(=O)[C@@H]2CCCN2C(=O)CN(C)C(=O)[C@H](Cc2ccc(-c3ccc(NC(=O)c4cccc(OCC(=O)O)c4)cc3)cc2)NC(=O)[C@H](Cc2ccc(-c3ccccc3)cc2)NC(=O)[C@H](CC2CCCCC2)NC(=O)CSC[C@@H](C(=O)NCC(N)=O)NC(=O)[C@H](CC(C)C)NC(=O)[C@H](Cc2cnc[nH]2)NC(=O)[C@H](C(C)C)NC(=O)[C@@H]2CCCN2C1=O [Example 442] ({CH2CO}-[Cha][Bip][Bip(4'-NH)](Benzoyl(3-OCH2COOH))[Sar]PD[dR]IPVHLCG-NH2; thioether N-13) | – | 0.05 to 0.2 µM
CC[C@H](C)[C@@H]1NC(=O)[C@@H](CCCNC(=N)N)NC(=O)[C@H](CC(=O)O)NC(=O)[C@H](Cc2cnc[nH]2)NC(=O)CN(C)C(=O)[C@H](Cc2ccc(-c3ccc(NC(=O)c4cc(C)cc(C(=O)O)c4)cc3)cc2)NC(=O)[C@H](Cc2ccc(-c3ccccc3)cc2)NC(=O)[C@H](CC2CCCCC2)NC(=O)CSC[C@@H](C(=O)NCC(N)=O)NC(=O)[C@H](CC(C)C)NC(=O)[C@H](Cc2cnc[nH]2)NC(=O)[C@H](C(C)C)NC(=O)[C@@H]2CCCN2C1=O [Example 443] ({CH2CO}-[Cha][Bip][X34][Sar]HD[dR]IPVHLCG-NH2; thioether N-13) | – | < 0.05 µM
